Data set [1] deals with T1, WNK1 (Homo sapiens, UniProt Q9H4A3).
T1 construct: purchased in-house DSF (thermal shift) panel per Fedorov et al
Put plainly: DSF thermal shift assay. To be noted: WNK1; inhibitor 10 μM, protein 2 μM; read-out: ΔTm. It counts as binding. As to the method:
(§1) Differences in the melting temperature (ΔTm) were measured as described by Fedorov et al.. Purified proteins were buffered in 25 mM HEPES (pH 7.5), 500 mM NaCl and were assayed in a 384-well plate with a final protein concentration of 2 μM in 10 μL assay volume. Inhibitors were added to a final concentration of 10 μM using an ECHO 550 acoustic dispenser (Labcyte, San José, CA, USA). As a fluorescence probe, SYPRO-Orange (Molecular Probes, Eugene, OR, USA) was added in a 1:5000 dilution. Filters for excitation and emission were set to 465 nm and 590 nm, respectively. The temperature was increased from 25 °C with 3 °C/min to a final temperature of 95 °C, while scanning, using the QuantStudio5 (Applied Biosystems, Waltham, MA, USA). Data were analyzed through Boltzmann equation in the Protein Thermal Shift software (Applied Biosystems, Waltham, MA, USA). Samples were measured in technical duplicates.

The target of data set [2] is T2, CAMKK2 (Homo sapiens, UniProt Q96RR4).
T2 construct: purchased in-house DSF (thermal shift) panel per Fedorov et al
T2 sequence (Q96RR4 whole entry): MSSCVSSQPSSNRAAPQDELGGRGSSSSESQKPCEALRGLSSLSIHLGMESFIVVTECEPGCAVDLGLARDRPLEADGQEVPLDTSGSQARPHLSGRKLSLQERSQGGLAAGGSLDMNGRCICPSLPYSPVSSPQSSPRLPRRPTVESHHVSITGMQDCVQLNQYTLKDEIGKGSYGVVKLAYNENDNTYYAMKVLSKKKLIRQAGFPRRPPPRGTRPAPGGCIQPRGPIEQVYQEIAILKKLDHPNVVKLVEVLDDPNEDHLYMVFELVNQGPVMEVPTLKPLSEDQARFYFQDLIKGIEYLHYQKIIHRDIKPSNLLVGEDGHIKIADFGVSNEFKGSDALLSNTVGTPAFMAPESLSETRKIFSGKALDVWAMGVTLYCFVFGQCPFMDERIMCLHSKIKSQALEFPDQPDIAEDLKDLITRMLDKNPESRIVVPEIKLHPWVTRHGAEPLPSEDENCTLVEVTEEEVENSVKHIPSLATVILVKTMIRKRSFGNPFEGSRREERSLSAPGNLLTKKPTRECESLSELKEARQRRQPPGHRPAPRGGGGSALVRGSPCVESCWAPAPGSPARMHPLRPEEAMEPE
Put plainly: DSF thermal shift assay. The format is binding. To be noted: CAMKK2; inhibitor 10 μM, protein 2 μM; read-out: ΔTm. As to the method:
as §1

Data set [3] addresses T3, PLK4 (Homo sapiens, UniProt O00444).
T3 construct: purchased in-house DSF (thermal shift) panel per Fedorov et al
Description: DSF thermal shift assay. It counts as binding. To be noted: PLK4; inhibitor 10 μM, protein 2 μM; read-out: ΔTm. As to the method:
as §1

For data set [4], the target named is T4, NEK2 (Homo sapiens, UniProt P51955).
T4 construct: purchased in-house DSF (thermal shift) panel per Fedorov et al
Description: DSF thermal shift assay. It counts as binding. As to conditions: NEK2; inhibitor 10 μM, protein 2 μM; read-out: ΔTm. As to the method: as §1

Data set [5] concerns the target T5, EPHA7 (Homo sapiens, UniProt Q15375).
T5 construct: purchased in-house DSF (thermal shift) panel per Fedorov et al
Put plainly: DSF thermal shift assay. The format is binding. As to conditions: EPHA7; inhibitor 10 μM, protein 2 μM; read-out: ΔTm. As to the method: as §1

Data set [6] addresses T6, RPS6K5 (Homo sapiens, UniProt O75582).
T6 construct: purchased in-house DSF (thermal shift) panel per Fedorov et al
Put plainly: DSF thermal shift assay. The format is binding. To be noted: RPS6K5; inhibitor 10 μM, protein 2 μM; read-out: ΔTm. As to the method: as §1

Data set [7] concerns the target T7, DCAMKL1 (Homo sapiens, UniProt O15075).
T7 construct: purchased in-house DSF (thermal shift) panel per Fedorov et al
Put plainly: DSF thermal shift assay. The format is binding. To be noted: DCAMKL1; inhibitor 10 μM, protein 2 μM; read-out: ΔTm. As to the method:
as §1

The target of data set [8] is T8, PAK1 (Homo sapiens, UniProt Q13153).
T8 construct: purchased in-house DSF (thermal shift) panel per Fedorov et al
Put plainly: DSF thermal shift assay. The format is binding. As to conditions: PAK1; inhibitor 10 μM, protein 2 μM; read-out: ΔTm. As to the method: as §1

In data set [9] the target is T9, DAPK1 (Homo sapiens, UniProt P53355).
T9 construct: purchased in-house DSF (thermal shift) panel per Fedorov et al
T9 sequence (P53355 whole entry): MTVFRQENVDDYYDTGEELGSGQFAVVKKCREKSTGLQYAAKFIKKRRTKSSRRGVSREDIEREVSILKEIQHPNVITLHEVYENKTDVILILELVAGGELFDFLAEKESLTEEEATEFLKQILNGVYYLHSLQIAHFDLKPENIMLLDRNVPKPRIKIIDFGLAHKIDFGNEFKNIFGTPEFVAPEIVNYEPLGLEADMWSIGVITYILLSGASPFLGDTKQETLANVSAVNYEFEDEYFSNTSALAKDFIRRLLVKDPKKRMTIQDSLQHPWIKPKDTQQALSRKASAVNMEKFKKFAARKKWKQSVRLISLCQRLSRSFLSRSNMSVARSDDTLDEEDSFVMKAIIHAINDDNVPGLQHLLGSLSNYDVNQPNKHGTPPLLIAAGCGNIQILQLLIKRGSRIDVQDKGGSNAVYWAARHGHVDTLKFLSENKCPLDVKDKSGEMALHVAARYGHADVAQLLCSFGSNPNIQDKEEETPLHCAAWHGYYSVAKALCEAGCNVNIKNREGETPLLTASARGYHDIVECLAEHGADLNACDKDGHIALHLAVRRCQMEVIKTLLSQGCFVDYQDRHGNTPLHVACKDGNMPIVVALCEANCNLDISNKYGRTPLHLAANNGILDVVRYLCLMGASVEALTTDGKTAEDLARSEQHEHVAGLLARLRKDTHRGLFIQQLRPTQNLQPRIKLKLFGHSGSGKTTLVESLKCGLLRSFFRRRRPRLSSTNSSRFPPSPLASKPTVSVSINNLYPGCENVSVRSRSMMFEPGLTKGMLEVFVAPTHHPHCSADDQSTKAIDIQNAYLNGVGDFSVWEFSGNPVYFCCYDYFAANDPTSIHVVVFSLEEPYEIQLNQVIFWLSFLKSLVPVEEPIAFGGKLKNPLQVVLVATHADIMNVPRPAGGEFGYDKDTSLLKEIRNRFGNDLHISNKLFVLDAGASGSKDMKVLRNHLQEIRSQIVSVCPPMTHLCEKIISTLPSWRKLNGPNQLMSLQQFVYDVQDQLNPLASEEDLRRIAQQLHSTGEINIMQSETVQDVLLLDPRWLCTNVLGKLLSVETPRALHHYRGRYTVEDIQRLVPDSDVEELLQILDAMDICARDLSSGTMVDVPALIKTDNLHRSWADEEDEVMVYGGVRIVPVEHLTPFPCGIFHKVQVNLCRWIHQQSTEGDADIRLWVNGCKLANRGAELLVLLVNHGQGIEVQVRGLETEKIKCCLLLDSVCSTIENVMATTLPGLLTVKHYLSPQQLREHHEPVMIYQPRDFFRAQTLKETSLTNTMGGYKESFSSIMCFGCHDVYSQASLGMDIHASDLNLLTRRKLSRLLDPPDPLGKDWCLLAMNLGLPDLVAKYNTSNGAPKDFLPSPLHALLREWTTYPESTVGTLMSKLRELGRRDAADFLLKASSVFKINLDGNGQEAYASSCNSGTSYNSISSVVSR
Put plainly: DSF thermal shift assay. To be noted: DAPK1; inhibitor 10 μM, protein 2 μM; read-out: ΔTm. The format is binding. As to the method: as §1

The target in data set [10] is T10, EPHB3 (Homo sapiens, UniProt P54753).
T10 construct: purchased in-house DSF (thermal shift) panel per Fedorov et al
T10 sequence (P54753 34-998): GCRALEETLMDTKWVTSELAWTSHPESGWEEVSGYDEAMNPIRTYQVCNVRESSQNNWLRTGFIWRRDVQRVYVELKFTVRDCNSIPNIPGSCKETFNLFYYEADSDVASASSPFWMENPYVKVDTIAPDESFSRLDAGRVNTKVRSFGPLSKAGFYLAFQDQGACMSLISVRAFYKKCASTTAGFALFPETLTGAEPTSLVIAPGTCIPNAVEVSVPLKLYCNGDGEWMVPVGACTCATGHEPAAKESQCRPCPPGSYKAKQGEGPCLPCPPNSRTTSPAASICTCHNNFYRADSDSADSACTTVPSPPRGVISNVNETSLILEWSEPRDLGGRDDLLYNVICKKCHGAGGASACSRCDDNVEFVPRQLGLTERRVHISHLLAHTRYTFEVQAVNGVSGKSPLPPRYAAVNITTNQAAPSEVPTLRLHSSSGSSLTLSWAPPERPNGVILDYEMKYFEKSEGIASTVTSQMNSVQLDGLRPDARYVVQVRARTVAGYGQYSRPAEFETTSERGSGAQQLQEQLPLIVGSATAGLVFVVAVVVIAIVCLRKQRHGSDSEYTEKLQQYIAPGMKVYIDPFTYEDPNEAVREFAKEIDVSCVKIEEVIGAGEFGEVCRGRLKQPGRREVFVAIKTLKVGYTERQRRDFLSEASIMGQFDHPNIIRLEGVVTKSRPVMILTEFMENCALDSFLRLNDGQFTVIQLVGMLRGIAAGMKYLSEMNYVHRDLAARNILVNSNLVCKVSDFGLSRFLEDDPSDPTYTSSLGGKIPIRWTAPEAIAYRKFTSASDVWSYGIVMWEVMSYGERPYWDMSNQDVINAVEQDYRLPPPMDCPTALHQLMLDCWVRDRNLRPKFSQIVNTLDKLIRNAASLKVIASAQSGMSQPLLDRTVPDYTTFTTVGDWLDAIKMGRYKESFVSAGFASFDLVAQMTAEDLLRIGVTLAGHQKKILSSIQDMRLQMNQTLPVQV
Put plainly: DSF thermal shift assay. As to conditions: EPHB3; inhibitor 10 μM, protein 2 μM; read-out: ΔTm. It counts as binding. As to the method: as §1

Data set [11] can be described thus: physchem. To be noted: buffer.
Description: The reaction temperature was chosen to be 40 °C.
Glutathione (GSH) Stability Assay
• 0 min: 40% MeOH, 60% phosphate buffer pH 2.3;
• 20 min: 85% MeOH, 15% phosphate buffer pH 2.3;
• 9 min: 95% MeOH, 5% phosphate buffer pH 2.3;
• 10 min: 95% MeOH, 5% phosphate buffer pH 2.3;
A short description of data set [12]: Aqueous degradation at pH 10.2. The format is physicochemical. To be noted: sodium tetraborate buffer (28 mM), no nucleophile, read-out: t1/2 of aqueous degradation (converted). As to the method: (§2) The Nα-acetyl lysine stability assay was performed in analogy to the GSH stability assay by substituting GSH with Nα-acetyl lysine at pH 7.4 and additionally at pH 10.2 to mimic the pKa depression often observed for biologically relevant lysines. PBS-buffer was substituted with a sodium tetraborate buffer (28 mM) for experiments at pH 10.2.
4. Nα-Acetyl Lysine Stability Assay

A short description of data set [13]: Nα-acetyl lysine stability assay (HPLC). The format is physicochemical. To be noted: for half-life: read-out: half-life t1/2 towards Nα-acetyl lysine (converted). As to the method: as §2
4. Nα-Acetyl Lysine Stability Assay […]
h. The stability towards Nα-acetyl lysine at pH 10.2 was corrected for the slope of the curve of the […]
Figure S11. Nα-acetyl lysine stability assay of compound 2 at pH 7.4 and pH 10.2. Error bars represent the standard deviation of triplicate measurements. AUC: area under the curve of residual starting material 2, t: time in hours.

T5 sequence (Q15375 28-998): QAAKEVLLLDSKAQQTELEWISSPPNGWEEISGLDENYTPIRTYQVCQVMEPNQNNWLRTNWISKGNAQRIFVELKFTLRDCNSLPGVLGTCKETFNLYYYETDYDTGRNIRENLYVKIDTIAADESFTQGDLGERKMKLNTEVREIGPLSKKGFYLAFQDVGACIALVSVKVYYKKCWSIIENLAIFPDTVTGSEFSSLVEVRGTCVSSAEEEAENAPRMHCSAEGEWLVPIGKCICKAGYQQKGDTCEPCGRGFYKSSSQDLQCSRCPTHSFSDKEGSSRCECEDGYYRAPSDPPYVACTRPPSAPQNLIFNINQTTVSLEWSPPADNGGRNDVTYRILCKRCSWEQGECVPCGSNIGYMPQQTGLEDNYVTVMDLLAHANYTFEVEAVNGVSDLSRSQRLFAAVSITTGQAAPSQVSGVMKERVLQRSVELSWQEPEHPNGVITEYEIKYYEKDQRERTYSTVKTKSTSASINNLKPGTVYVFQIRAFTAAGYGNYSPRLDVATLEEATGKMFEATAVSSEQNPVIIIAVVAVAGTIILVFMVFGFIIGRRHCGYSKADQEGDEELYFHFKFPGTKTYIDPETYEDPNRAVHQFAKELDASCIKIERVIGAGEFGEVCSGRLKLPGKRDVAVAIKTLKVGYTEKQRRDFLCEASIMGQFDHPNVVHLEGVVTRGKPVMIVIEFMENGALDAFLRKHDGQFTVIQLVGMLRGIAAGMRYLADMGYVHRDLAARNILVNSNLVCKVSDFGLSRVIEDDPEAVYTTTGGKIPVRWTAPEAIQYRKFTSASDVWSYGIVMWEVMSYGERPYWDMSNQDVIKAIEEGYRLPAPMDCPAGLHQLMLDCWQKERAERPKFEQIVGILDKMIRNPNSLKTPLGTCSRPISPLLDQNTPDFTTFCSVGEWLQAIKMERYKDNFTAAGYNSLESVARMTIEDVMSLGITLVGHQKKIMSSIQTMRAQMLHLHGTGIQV
T6 sequence (O75582 whole entry): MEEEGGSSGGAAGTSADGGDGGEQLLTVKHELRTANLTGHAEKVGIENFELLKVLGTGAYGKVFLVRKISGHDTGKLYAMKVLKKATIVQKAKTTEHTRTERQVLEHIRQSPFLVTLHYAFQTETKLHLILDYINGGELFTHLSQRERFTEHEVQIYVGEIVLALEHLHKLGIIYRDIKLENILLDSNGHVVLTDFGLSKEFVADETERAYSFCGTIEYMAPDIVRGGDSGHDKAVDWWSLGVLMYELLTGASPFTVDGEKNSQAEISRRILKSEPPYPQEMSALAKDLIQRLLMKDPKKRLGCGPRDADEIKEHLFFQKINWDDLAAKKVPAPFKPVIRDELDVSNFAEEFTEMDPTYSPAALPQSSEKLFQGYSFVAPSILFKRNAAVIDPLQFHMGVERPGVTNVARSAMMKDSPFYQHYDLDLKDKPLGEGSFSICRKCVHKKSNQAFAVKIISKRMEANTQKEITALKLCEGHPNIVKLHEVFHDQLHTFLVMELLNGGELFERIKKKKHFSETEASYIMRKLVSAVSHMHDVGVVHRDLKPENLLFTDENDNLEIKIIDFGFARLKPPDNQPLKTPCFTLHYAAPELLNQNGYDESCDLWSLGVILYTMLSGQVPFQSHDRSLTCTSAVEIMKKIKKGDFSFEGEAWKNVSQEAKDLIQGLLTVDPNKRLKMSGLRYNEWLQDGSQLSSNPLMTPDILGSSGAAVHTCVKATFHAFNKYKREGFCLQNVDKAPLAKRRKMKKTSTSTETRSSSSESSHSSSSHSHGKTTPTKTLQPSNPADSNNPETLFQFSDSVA

Broadly, the ΔTm is the change in melting temperature against a reference sample. Regarding `CCc1cnc(Nc2nc(Cl)ccc2[N+](=O)[O-])nc1N1CCN(Cc2nc3cc(C(F)(F)F)ccc3[nH]2)CC1` [Compound 2], the ΔTm at 10 µM in data set [1] was -0.9 °C; in data set [2], 0.6 °C; in data set [3], 0.2 °C; in [4] it was 0.1 °C; in data set [5], 0.5 °C; in data set [6], 1.5 °C. For the same compound, the ΔTm at 10 µM in data set [7] was 0.2 °C; in data set [8] it was -0.5 °C; in data set [9], -0.5 °C; in data set [10], -0.9 °C. In [11], this compound had a half-life at […] of 55 h. Also, the half-life in [12] is 139 h; in [13] (Nα-acetyl lysine in MeCN/PBS buffer, pH 7.4), 1160 h; in data set [13] (Nα-acetyl lysine in sodium tetraborate buffer (28 mM), pH 10.2, corrected for aqueous degradation), 27 h. Besides, the “reactivity towards Nα-acetyl lysine” value in data set [13] (physiological pH) was “negligible reactivity”.
